Data: PMC12389534, “Unlocking Therapeutic Potential of Novel Thieno-Oxazepine Hybrids as Multi-Target Inhibitors of AChE/BChE and Evaluation Against Alzheimer’s Disease: In Vivo, In Vitro, Histopathological, and Docking Studies” (Pharmaceuticals, 2025)

Assays:
BACE1 = assay: Brain BACE1 level (ELISA); type: in vivo, rat; design: reduction of BACE1 levels: concentration or dose not given beside the values; settings: AlCl3-induced AD rats; for BACE1 (ng/mL): mean ± SE, n = 6
Procedure: (§1) The brain tissues of the rats were removed and rigorously washed in isotonic saline 24 h after they were euthanized following the last behavioral test. For histological investigation, four brains per group were preserved for the whole night in 10% neutral buffered formalin. The remaining six brains were split into two sections each. In order to create a 10% homogenate (w/v), the first component was instantaneously homogenized using an ice-cold solution that included 300 mM sucrose and 50 mM Tris-HCl (pH 7.4). The homogenate was centrifuged at 1800× g for 10 min at 4 °C for biochemical tests, and the supernatant was thereafter kept at −20 °C. The second portion was set aside for use in RT-PCR analysis at −80 °C [94]. […]

5-HT = assay: Brain 5-HT level (fluorometric); type: in vivo, rat; settings: AlCl3-induced AD rats; for 5-HT (ng/g Tissue): brain tissue, mean ± SE, n = 6
Procedure: (§2) The brain tissues of the rats were removed and rigorously washed in isotonic saline 24 h after they were euthanized following the last behavioral test. For histological investigation, four brains per group were preserved for the whole night in 10% neutral buffered formalin. The remaining six brains were split into two sections each. In order to create a 10% homogenate (w/v), the first component was instantaneously homogenized using an ice-cold solution that included 300 mM sucrose and 50 mM Tris-HCl (pH 7.4). The homogenate was centrifuged at 1800× g for 10 min at 4 °C for biochemical tests, and the supernatant was thereafter kept at −20 °C. The second portion was set aside for use in RT-PCR analysis at −80 °C [94].
(§3) Brain monoamine levels were promptly assessed following the rats’ euthanasia to prevent changes in the substance’s concentration. Dopamine (DA), norepinephrine (NE), and serotonin (5-HT) fluorometric tests were conducted on brain tissue homogenate using the Ciarlone method. […] The concentrations were articulated as nanograms per gram of fresh tissue using the fluorescence of reference solutions [95].

DA = assay: Brain DA level (fluorometric); type: in vivo, rat; settings: brain tissue, AlCl3-induced AD rats; mean ± SE, n = 6
Procedure: as §2, §3

NE = assay: Brain NE level (fluorometric); type: in vivo, rat; settings: brain tissue, AlCl3-induced AD rats; mean ± SE, n = 6
Procedure: as §2, §3

BDNF = assay: Brain BDNF level (ELISA); type: in vivo, rat; settings: brain tissue, AlCl3-induced AD rats; mean ± SE, n = 6
Procedure: as §2
(§4) See Supplementary Information.

AChE = type: in vivo; design: reduction in AChE levels: concentration or dose not given beside the values; settings: AlCl3-induced AD rats; for AChE (ng/g Tissue): brain tissue, mean ± SE, n = 6; for reduction in AChE levels: brain
TNF-α = assay: Brain TNF-α level (ELISA); type: in vivo, rat; settings: AlCl3-induced AD rats; for TNF-α (pg/g Tissue): mean ± SE, n = 6
Procedure: as §1

IL-1β = assay: Brain IL-1β level (ELISA); type: in vivo, rat; design: reduction in IL-1β levels: concentration or dose not given beside the values; settings: AlCl3-induced AD rats; for IL-β (pg/g Tissue): mean ± SE, n = 6
Procedure: as §1

TLR4 = TLR4 mRNA expression (RT-qPCR); type: in vivo, rat; settings: mRNA expression level; AlCl3-induced AD rats; mean ± SE, n = 6
Procedure: as §2, §4

NFκβ = NFκβ mRNA expression (RT-qPCR); type: in vivo, rat; settings: mRNA expression level; AlCl3-induced AD rats; mean ± SE, n = 6
Procedure: as §2, §4

NLRP3 = NLRP3 mRNA expression (RT-qPCR); type: in vivo, rat; settings: mRNA expression level; AlCl3-induced AD rats; mean ± SE, n = 6
Procedure: as §2, §4

Caspase-1 = Caspase-1 gene expression (RT-qPCR); type: in vivo, rat; settings: gene expression; AlCl3-induced AD rats; mean ± SE, n = 6
Procedure: as §2, §4

BAX = BAX gene expression (RT-qPCR); type: in vivo, rat; settings: AlCl3-induced AD rats; for BAX: gene expression, mean ± SE, n = 6
Procedure: as §2, §4

Bcl-2 = Bcl-2 gene expression (RT-qPCR); type: in vivo, rat; settings: gene expression; AlCl3-induced AD rats; mean ± SE, n = 6
Procedure: as §2, §4

Wnt3a = assay: Brain Wnt3a level; type: in vivo, rat; settings: AlCl3-induced AD rats; for Wnt3a (ng/g Tissue): mean ± SE, n = 6
Procedure: as §2, §4

GSK3β = GSK3β gene expression (RT-qPCR); type: in vivo, rat; settings: AlCl3-induced AD rats; for GSK3β: gene expression, mean ± SE, n = 6
Procedure: as §2, §4

β-catenin = assay: Brain β-catenin level; type: in vivo, rat; settings: AlCl3-induced AD rats; for β-Catenin (ng/L): mean ± SE, n = 6
Procedure: as §2, §4

SOD = assay: Brain SOD activity (colorimetric); type: in vivo, rat; settings: AlCl3-induced AD rats; for SOD(U/g): brain tissue, mean ± SE, n = 6
Procedure: as §2
(§5) The SOD enzyme activity was estimated using the Marklund et al. method, which is founded on the enzyme’s capacity to decrease the nitro blue tetrazolium dye at a wavelength of 540 nm. To evaluate the TAC, a colorimetric approach was employed to estimate the amount of hydrogen peroxide that remains after 3,5-dichloro-2-hydroxybenzene sulphonate is converted to a colored product at 660 nm.

TAC = assay: Brain TAC (colorimetric); type: in vivo, rat; settings: AlCl3-induced AD rats; for TAC (µmol/g Tissue): brain tissue, mean ± SE, n = 6
Procedure: as §2, §5

MDA = assay: Brain MDA content (thiobarbituric acid method); type: in vivo, rat; design: reduction in MDA brain content: concentration or dose not given beside the values; settings: AlCl3-induced AD rats; for MDA (nmol/g Tissue): brain tissue, mean ± SE, n = 6
Nrf-2 = Nrf-2 mRNA expression (RT-qPCR); type: in vivo, rat; settings: mRNA expression in brain tissue; AlCl3-induced AD rats; mean ± SE, n = 6
Procedure: as §2, §4

HO-1 = HO-1 mRNA expression (RT-qPCR); type: in vivo, rat; settings: mRNA expression in brain tissue; AlCl3-induced AD rats; mean ± SE, n = 6
Procedure: as §2, §4

BChE = biological target: T1, BChE (Homo sapiens, UniProt P06276); assay: biochemical; settings: for IC50: fluorescence kit, triplicate; for Selectivity Index BChE/AChE: ratio of IC50 BChE to IC50 AChE, <1 = preferential BChE inhibition
T1 construct: purchased Invitrogen EIABCHEF
Procedure: Using an Invitrogen BChE test kit (Catalog #EIABCHEF), the assay was performed in compliance with the supplier’s instructions. The study was conducted using black 96-well plates. […] Each well was then filled with 50 μL of the reaction mixture, which consisted of fluorescence detection reagent and butyrylthiocholine iodide in assay buffer. The plate was then left to incubate for 20 min at room temperature. Finally, excitation at 390 nm was used to observe emission at 510 nm using a microplate reader. Background fluorescence was further eliminated for each data point.

BAX/Bcl-2 = BAX/Bcl-2 ratio of gene expression; type: in vivo, rat; settings: AlCl3-induced AD rats
Procedure: as §2, §4

T1 sequence (P06276 29-602): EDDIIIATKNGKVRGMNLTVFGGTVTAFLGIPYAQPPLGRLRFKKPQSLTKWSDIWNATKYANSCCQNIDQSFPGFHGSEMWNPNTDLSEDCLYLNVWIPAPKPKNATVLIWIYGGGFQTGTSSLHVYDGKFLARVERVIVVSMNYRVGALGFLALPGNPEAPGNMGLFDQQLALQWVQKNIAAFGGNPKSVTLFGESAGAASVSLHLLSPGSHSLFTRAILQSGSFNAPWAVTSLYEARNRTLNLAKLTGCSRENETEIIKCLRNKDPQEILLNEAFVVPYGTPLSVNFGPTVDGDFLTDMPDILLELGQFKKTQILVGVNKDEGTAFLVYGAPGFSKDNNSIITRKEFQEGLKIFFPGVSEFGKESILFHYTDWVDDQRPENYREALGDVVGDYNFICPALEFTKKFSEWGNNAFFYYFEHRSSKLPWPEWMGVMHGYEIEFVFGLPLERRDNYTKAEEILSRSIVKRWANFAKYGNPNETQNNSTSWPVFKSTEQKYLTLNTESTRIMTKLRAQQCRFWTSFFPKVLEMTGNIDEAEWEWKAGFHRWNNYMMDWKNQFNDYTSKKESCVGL

CCOC(=O)c1c(O)sc2c1CCCCC2 [Compound 2, Ethyl 2-hydroxy-5,6,7,8-tetrahydro-4H-cyclohepta[b]thiophene-3-carboxylate]
reduction of BACE1 levels (BACE1): 20.4% | BACE1 (ng/mL) (BACE1): 23.60 ± 0.2 ^abc ng/mL | elevation of 5-HT levels (5-HT): 1.7 fold | 5-HT (ng/g Tissue) (5-HT): 3.16 ± 0.63 ^abc ng/g Tissue | DA (ng/g Tissue) (DA): 24.71 ± 1.62 ^abc ng/g Tissue | NE (nmol/g Tissue) (NE): 256.9 ± 1.62 ^abc nmol/g Tissue | BDNF (ng/mL) (BDNF): 64.95 ± 0.01 ^abc ng/mL | AChE (ng/g Tissue) (AChE): 51.41 ± 0.13 ^abc ng/g Tissue | reduction in AChE levels (AChE): 23.6% | decline in TNF-α levels (TNF-α): 31% | TNF-α (pg/g Tissue) (TNF-α): 121.4 ± 0.97 ^abc pg/g Tissue | reduction in IL-1β levels (IL-1β): 20.6% | IL-β (pg/g Tissue) (IL-1β): 93.93 ± 1.26 ^abc pg/g Tissue | TLR4 (TLR4): 7.66 ± 0.12 ^abc | NFκβ (NFκβ): 6.53 ± 0.08 ^abc | NLRP3 (NLRP3): 8.29 ± 0.09 ^abc | Caspase-1 (Caspase-1): 7.46 ± 0.120 ^abc | suppression of BAX gene expression (BAX): 16% | BAX (BAX): 8.13 ± 0.070 ^abc | Bcl-2 (Bcl-2): 0.27 ± 0.007 ^abc | elevation of Wnt3a levels (Wnt3a): 2 fold | Wnt3a (ng/g Tissue) (Wnt3a): 0.25 ± 0.01 ^abc ng/g Tissue | reduction of GSK3β gene expression (GSK3β): 13.7% | GSK3β (GSK3β): 8.80 ± 0.12 ^abc | elevation of β-catenin levels (β-catenin): 2.7 fold | β-Catenin (ng/L) (β-catenin): 4.262 ± 0.12 ^abc ng/L | SOD(U/g) (SOD): 0.68 ± 0.26 ^abc U/g | improvement of TAC levels (TAC): 1.9 times | TAC (µmol/g Tissue) (TAC): 18.26 ± 0.395 ^abc µmol/g Tissue | MDA (nmol/g Tissue) (MDA): 92.07 ± 0.04 ^abc nmol/g Tissue | Nrf-2 (Nrf-2): 0.25 ± 0.008 ^abc | HO-1 (HO-1): 0.34 ± 0.032 ^abc | IC50 (BChE): 5.72 ± 0.2 µM | Selectivity Index BChE/AChE (BChE): 5.21 | BAX/Bcl-2 Ratio (BAX/Bcl-2): 30.11

CCOC(=O)c1c(OC(=O)CCl)sc2c1CCCCC2 [Compound 4, Ethyl 2-(2-chloroacetoxy)-5,6,7,8-tetrahydro-4H-cyclohepta[b]thiophene-3-carboxylate]
reduction of BACE1 levels (BACE1): 26.2% | BACE1 (ng/mL) (BACE1): 21.89 ± 0.27 ^abc ng/mL | elevation of 5-HT levels (5-HT): 2.4 fold | 5-HT (ng/g Tissue) (5-HT): 4.29 ± 0.76 ^abc ng/g Tissue | DA (ng/g Tissue) (DA): 30.69 ± 1.2 ^abc ng/g Tissue | NE (nmol/g Tissue) (NE): 282.6 ± 1.2 ^abc nmol/g Tissue | BDNF (ng/mL) (BDNF): 75.75 ± 0.01 ^abc ng/mL | AChE (ng/g Tissue) (AChE): 43.89 ± 0.19 ^abc ng/g Tissue | reduction in AChE levels (AChE): 34.8% | decline in TNF-α levels (TNF-α): 35.4% | TNF-α (pg/g Tissue) (TNF-α): 113.6 ± 0.83 ^abc pg/g Tissue | reduction in IL-1β levels (IL-1β): 30% | IL-β (pg/g Tissue) (IL-1β): 82.82 ± 1.1 ^abc pg/g Tissue | TLR4 (TLR4): 6.39 ± 0.12 ^abc | NFκβ (NFκβ): 5.77 ± 0.19 ^abc | NLRP3 (NLRP3): 6.30 ± 0.09 ^abc | Caspase-1 (Caspase-1): 6.46 ± 0.120 ^abc | suppression of BAX gene expression (BAX): 23.3% | BAX (BAX): 7.42 ± 0.030 ^abc | Bcl-2 (Bcl-2): 0.38 ± 0.020 ^abc | elevation of Wnt3a levels (Wnt3a): 2.8 fold | Wnt3a (ng/g Tissue) (Wnt3a): 0.34 ± 0.01 ^abc ng/g Tissue | reduction of GSK3β gene expression (GSK3β): 32.7% | GSK3β (GSK3β): 6.86 ± 0.15 ^abc | elevation of β-catenin levels (β-catenin): 3.9 fold | β-Catenin (ng/L) (β-catenin): 6.17 ± 0.07 ^abc ng/L | SOD(U/g) (SOD): 1.75 ± 0.31 ^abc U/g | SOD activity levels (SOD; brain): 1.75 U/g tissue | improvement of TAC levels (TAC): 2.7 times | TAC (µmol/g Tissue) (TAC): 25.87 ± 0.965 ^abc µmol/g Tissue | reduction in MDA brain content (MDA): 33.6% | MDA (nmol/g Tissue) (MDA): 77.14 ± 0.06 ^abc nmol/g Tissue | Nrf-2 (Nrf-2): 0.31 ± 0.004 ^abc | HO-1 (HO-1): 0.39 ± 0.007 ^abc | IC50 (BChE): 56.2 ± 1.93 µM | Selectivity Index BChE/AChE (BChE): 1.36 | BAX/Bcl-2 Ratio (BAX/Bcl-2): 19.53
